Test [1] has as its system Rattus norvegicus. Briefly: Induction of diuresis activity in Rattus norvegicus albino (rat) assessed as urinary excretion at 20 mg/kg, po measured at 5-18 hr after drug administration by standard Lipschitz method against frusemide-treated control (reference value: 0.2 no unit). The class given is functional, Urine.
Test [2] concerns Rattus norvegicus. Briefly: Induction of diuresis action in Rattus norvegicus albino (rat) assessed as urinary excretion at 20 mg/kg, po measured at 5-18 hr after drug administration by standard Lipschitz method against untreated control (reference value: 1 no unit). Type of test: functional, Urine.
For test [3], the system named is Rattus norvegicus. Briefly: Induction of diuresis activity in Rattus norvegicus albino (rat) assessed as urinary excretion at 20 mg/kg, po measured at 0-5 hr after drug administration by standard Lipschitz method against frusemide-treated control (reference value: 0.5 no unit). Type of test: functional, Urine.
In test [4] the test system is Rattus norvegicus. Nature of the test: Induction of diuresis action in Rattus norvegicus albino (rat) assessed as urinary excretion at 20 mg/kg, po measured at 0-5 hr after drug administration by standard Lipschitz method against untreated control (reference value: 1 no unit). Type of test: functional, Urine.
Test [5] deals with Rattus norvegicus. Nature of the test: Induction of diuresis in Rattus norvegicus albino (rat) assessed as urinary Cl- excretion at 20 mg/kg, po measured at 5-18 hr after drug administration by standard Lipschitz method (reference value: 0.38 +/-0.011 mEq/L). Type of test: functional, Urine.
For test [6], the system named is Rattus norvegicus. Briefly: Induction of diuresis in Rattus norvegicus albino (rat) assessed as urinary K+ excretion at 20 mg/kg, po measured at 5-18 hr after drug administration by standard Lipschitz method (reference value: 0.22 +/-0.004 mEq/L). The class given is functional, Urine.
Test [7] has as its system Rattus norvegicus. Nature of the test: Induction of diuresis in Rattus norvegicus albino (rat) assessed as urinary Na+ excretion at 20 mg/kg, po measured at 5-18 hr after drug administration by standard Lipschitz method (reference value: 0.65+/-0.006 mEq/L). Type of test: functional, Urine.
For test [8], the system named is Rattus norvegicus. Briefly: Induction of diuresis in Rattus norvegicus albino (rat) assessed as urinary K+ excretion at 20 mg/kg, po measured at 0-5 hr after drug administration by standard Lipschitz method (reference value: 0.46 +/-0.006 mEq/L). The class given is functional, Urine.
Test [9] has as its system Rattus norvegicus. Briefly: Induction of diuresis in Rattus norvegicus albino (rat) assessed as urinary Na+ excretion at 20 mg/kg, po measured at 0-5 hr after drug administration by standard Lipschitz method (reference value: 0.90 +/-0.003 mEq/L). Type of test: functional, Urine.
The subject of test [10] is Rattus norvegicus. Nature of the test: Induction of diuresis in Rattus norvegicus albino (rat) assessed as urinary excretion at 20 mg/kg, po measured at 5-18 hr after drug administration by standard Lipschitz method (reference value: 50.4%). The class given is functional, Urine.
Test [11] relates to Rattus norvegicus. Briefly: Induction of diuresis in Rattus norvegicus albino (rat) assessed as normal saline intake at 20 mg/kg, po measured at 5-18 hr after drug administration by standard Lipschitz method (reference value: 2.50 +/-0.036 ml). The class given is functional.
Test [12] concerns Rattus norvegicus. Briefly: Induction of diuresis in Rattus norvegicus albino (rat) assessed as total urinary output at 20 mg/kg, po measured at 5-18 hr after drug administration by standard Lipschitz method (reference value: 1.26 +/-0.049 ml). The class given is functional, Urine.
In test [13] the test system is Rattus norvegicus. Nature of the test: Induction of diuresis in Rattus norvegicus albino (rat) assessed as urinary Cl- excretion at 20 mg/kg, po measured at 0-5 hr after drug administration by standard Lipschitz method (reference value: 0.46 +/-0.005 mEq/L). The class given is functional, Urine.
The test system of test [14] is Rattus norvegicus. Nature of the test: Induction of diuresis in Rattus norvegicus albino (rat) assessed as urinary excretion at 20 mg/kg, po measured at 0-5 hr after drug administration by standard Lipschitz method (reference value: 98.40%). The class given is functional, Urine.
Test [15] deals with Rattus norvegicus. Nature of the test: Induction of diuresis in Rattus norvegicus albino (rat) assessed as normal saline intake at 20 mg/kg, po measured at 0-5 hr after drug administration by standard Lipschitz method (reference value: 2.50 +/-0.036 ml). The class given is functional.
For test [16], the system named is Rattus norvegicus. Briefly: Induction of diuresis in Rattus norvegicus albino (rat) assessed as total urinary output at 20 mg/kg, po measured at 0-5 hr after drug administration by standard Lipschitz method (reference value: 2.46 +/-0.125 ml). The class given is functional, Urine.

In the case of `COc1ccc(C2=NN(C(=O)c3ccc(Cl)cc3)C(c3ccc(OCC(=O)O)c(OC)c3)C2)cc1` (centres undefined), the Ratio with Rattus norvegicus [1] was determined as 0.03; in the test on Rattus norvegicus [2], 0.16; in the test on Rattus norvegicus [3], 0.2; in the test on Rattus norvegicus [4] it was 0.4. Moreover, the Activity in the test on Rattus norvegicus [5] was found to be 0.06 mEq/L; in the test with Rattus norvegicus [6], 0.068 mEq/L; with Rattus norvegicus [7], 0.11 mEq/L; with Rattus norvegicus [8], 0.36 mEq/L; with Rattus norvegicus [9], 0.76 mEq/L; in the test with Rattus norvegicus [10], 8.07%. The Activity with Rattus norvegicus [11] was determined as 2.85 mL; with Rattus norvegicus [12] it was 0.23 mL; with Rattus norvegicus [13], 0.36 mEq/L; with Rattus norvegicus [14], 42.45%; with Rattus norvegicus [15], 2.85 mL; in the test on Rattus norvegicus [16] it was 1.21 mL.
As to `COc1ccc(C2=NN(C(=O)COc3ccccc3)C(c3ccc(OCC(=O)O)c(OC)c3)C2)cc1` (centres undefined), the Ratio with Rattus norvegicus [1] was found to be 0.76; with Rattus norvegicus [2] it was 3.8; with Rattus norvegicus [3], 0.91; in the test with Rattus norvegicus [4] it was 1.8. Besides, the Activity with Rattus norvegicus [5] turned out to be 1.38 mEq/L; in the test on Rattus norvegicus [6], 1.35 mEq/L; with Rattus norvegicus [7] it was 2.62 mEq/L; in the test on Rattus norvegicus [8], 0.54 mEq/L; in the test with Rattus norvegicus [9], 1.92 mEq/L; in the test with Rattus norvegicus [10], 190.49%. The Activity in the test on Rattus norvegicus [11] came to 2.84 mL; in the test with Rattus norvegicus [12] it was 5.41 mL; in the test with Rattus norvegicus [13] it was 0.96 mEq/L; with Rattus norvegicus [14], 180.63%; in the test with Rattus norvegicus [15] it was 2.84 mL; in the test on Rattus norvegicus [16] it was 5.13 mL.
In the case of `COc1cc(C2CC(c3ccc(O)cc3O)=NN2C(=O)COc2ccccc2)ccc1OCC(=O)O` (centres undefined), the Ratio in the test with Rattus norvegicus [1] is 1.12; with Rattus norvegicus [2], 5.58; in the test on Rattus norvegicus [3], 0.76; in the test on Rattus norvegicus [4] it was 1.5. Besides, the Activity with Rattus norvegicus [5] turned out to be 1.69 mEq/L; in the test with Rattus norvegicus [6], 2.12 mEq/L; in the test with Rattus norvegicus [7], 3.66 mEq/L; with Rattus norvegicus [8], 0.55 mEq/L; with Rattus norvegicus [9] it was 1.92 mEq/L; with Rattus norvegicus [10] it was 279.19%. Also, the Activity in the test on Rattus norvegicus [11] worked out at 2.74 mL; in the test on Rattus norvegicus [12] it was 7.65 mL; with Rattus norvegicus [13] it was 0.66 mEq/L; in the test on Rattus norvegicus [14], 150%; in the test on Rattus norvegicus [15] it was 2.74 mL; in the test on Rattus norvegicus [16], 4.11 mL.
Consider `COc1cc(C2CC(c3ccc(Cl)cc3)=NN2C(=O)c2ccc(C)cc2)ccc1OCC(=O)O` (centres undefined), for which the Ratio with Rattus norvegicus [1] is listed as 1.88; in the test with Rattus norvegicus [2], 9.32; with Rattus norvegicus [3], 1.11; in the test with Rattus norvegicus [4], 2.2. Further, the Activity worked out at 2.69 mEq/L in the test on Rattus norvegicus [5]; 2.66 mEq/L in the test on Rattus norvegicus [6]; 4.31 mEq/L in the test with Rattus norvegicus [7]; 0.81 mEq/L with Rattus norvegicus [8]; 1.56 mEq/L in the test on Rattus norvegicus [9]; 466.66% with Rattus norvegicus [10]. The Activity came out at 2.61 mL with Rattus norvegicus [11]; 12.18 mL with Rattus norvegicus [12]; 0.76 mEq/L in the test on Rattus norvegicus [13]; 223.37% with Rattus norvegicus [14]; 2.61 mL in the test on Rattus norvegicus [15]; 5.83 mL with Rattus norvegicus [16].
`COc1cc(C2CC(c3ccc(Cl)cc3)=NN2C(=O)COc2ccccc2)ccc1OCC(=O)O` (centres undefined): the Ratio in the test with Rattus norvegicus [1] is 1.39; in the test with Rattus norvegicus [2], 6.92; in the test on Rattus norvegicus [3], 1.26; with Rattus norvegicus [4], 2.5. Moreover, the Activity in the test with Rattus norvegicus [5] turned out to be 1.77 mEq/L; in the test on Rattus norvegicus [6], 1.96 mEq/L; with Rattus norvegicus [7], 3.82 mEq/L; in the test on Rattus norvegicus [8], 1.74 mEq/L; in the test on Rattus norvegicus [9], 3.26 mEq/L; with Rattus norvegicus [10] it was 345.91%. The Activity was 2.94 mL in the test with Rattus norvegicus [11]; 10.17 mL in the test on Rattus norvegicus [12]; 1.66 mEq/L with Rattus norvegicus [13]; 247.61% in the test on Rattus norvegicus [14]; 2.94 mL with Rattus norvegicus [15]; 7.28 mL in the test with Rattus norvegicus [16].
With `COc1cc(C2CC(c3ccc(Cl)cc3)=NN2C(=O)Cc2ccccc2)ccc1OCC(=O)O` (centres undefined), the Ratio is 0.88 in the test on Rattus norvegicus [1], 4.38 in the test on Rattus norvegicus [2], 0.76 in the test on Rattus norvegicus [3] and 1.5 with Rattus norvegicus [4]. For the same compound, the Activity in the test on Rattus norvegicus [5] is 1.96 mEq/L; in the test on Rattus norvegicus [6] it was 1.65 mEq/L; in the test on Rattus norvegicus [7], 2.86 mEq/L; in the test on Rattus norvegicus [8] it was 0.74 mEq/L; in the test with Rattus norvegicus [9], 1.26 mEq/L; in the test on Rattus norvegicus [10], 219.36%. The Activity with Rattus norvegicus [11] came out at 2.84 mL; in the test with Rattus norvegicus [12], 6.23 mL; with Rattus norvegicus [13] it was 0.67 mEq/L; with Rattus norvegicus [14] it was 156.69%; in the test with Rattus norvegicus [15] it was 2.84 mL; in the test with Rattus norvegicus [16] it was 4.45 mL.
Consider `COc1cc(C2CC(c3ccc(Cl)cc3)=NN2C(=O)COc2ccc(C)cc2)ccc1OCC(=O)O` (centres undefined), for which the Ratio is listed as 1.14 with Rattus norvegicus [1], 5.68 with Rattus norvegicus [2], 1.01 with Rattus norvegicus [3] and 2 with Rattus norvegicus [4]. Also, the Activity stood at 1.68 mEq/L in the test with Rattus norvegicus [5]; 1.87 mEq/L with Rattus norvegicus [6]; 3.13 mEq/L in the test on Rattus norvegicus [7]; 1.32 mEq/L in the test on Rattus norvegicus [8]; 2.61 mEq/L in the test on Rattus norvegicus [9]; 284.96% in the test with Rattus norvegicus [10]. Besides, the Activity with Rattus norvegicus [11] was found to be 2.86 mL; in the test with Rattus norvegicus [12], 8.15 mL; with Rattus norvegicus [13], 1.36 mEq/L; with Rattus norvegicus [14], 197.55%; in the test on Rattus norvegicus [15], 2.86 mL; in the test with Rattus norvegicus [16], 5.65 mL.
In the case of `COc1cc(C2CC(c3ccc(O)cc3)=NN2C(=O)c2ccc(Cl)cc2)ccc1OCC(=O)O` (centres undefined), the Ratio with Rattus norvegicus [1] stood at 0.74; with Rattus norvegicus [2] it was 3.66; with Rattus norvegicus [3], 0.45; in the test with Rattus norvegicus [4], 0.9. Also, the Activity in the test on Rattus norvegicus [5] is 0.95 mEq/L; in the test with Rattus norvegicus [6], 0.56 mEq/L; with Rattus norvegicus [7], 1.95 mEq/L; in the test with Rattus norvegicus [8], 0.45 mEq/L; in the test with Rattus norvegicus [9], 0.87 mEq/L; in the test on Rattus norvegicus [10] it was 183.45%. Further, the Activity with Rattus norvegicus [11] was determined as 2.84 mL; in the test with Rattus norvegicus [12], 5.21 mL; in the test on Rattus norvegicus [13], 0.46 mEq/L; in the test on Rattus norvegicus [14], 89.28%; in the test on Rattus norvegicus [15], 2.84 mL; in the test with Rattus norvegicus [16], 2.5 mL.
As for `COc1cc(C2CC(c3ccc(Cl)cc3)=NN2C(=O)c2ccc(Cl)cc2)ccc1OCC(=O)O` (centres undefined), the Ratio was 1.12 in the test with Rattus norvegicus [1], 5.56 in the test on Rattus norvegicus [2], 1.11 in the test with Rattus norvegicus [3] and 2.2 with Rattus norvegicus [4]. Also, the Activity in the test on Rattus norvegicus [5] came out at 1.77 mEq/L; in the test with Rattus norvegicus [6], 1.76 mEq/L; in the test with Rattus norvegicus [7], 3.26 mEq/L; in the test on Rattus norvegicus [8], 1.55 mEq/L; in the test with Rattus norvegicus [9], 2.82 mEq/L; with Rattus norvegicus [10] it was 278%. Moreover, the Activity turned out to be 2.67 mL in the test with Rattus norvegicus [11]; 7.43 mL in the test with Rattus norvegicus [12]; 1.94 mEq/L in the test on Rattus norvegicus [13]; 226.96% with Rattus norvegicus [14]; 2.67 mL with Rattus norvegicus [15]; 6.06 mL in the test with Rattus norvegicus [16].

Values taken from ChEMBL document CHEMBL3046926, “Molecular properties prediction, synthesis, and diuretic activity of phenoxy acetic acid bearing pyrazolines” (2013).
